US8513289B2, “P38 kinase inhibiting agents” (Merck Sharp & Dohme Corp., priority 2009, dated 2013)

Columns and labels:
p38-α = molecular target: T1, p38-α (Homo sapiens, UniProt Q16539); test: p38 kinase assay, p38-α with peptide substrate (Caliper LabChip); type: biochemical; conditions: read-out: IC50 p38a*peptide
T1 construct: purchased Millipore
Description: Alternatively, p38 kinase assays were performed in a reaction volume of 70 µL in a 384-well plate, at 30° for […] under the following conditions: 50 mM Hepes, pH 7.4, 10 mM MgCl2, 1 mg/ml FA Free BSA, 1 mM DTT, 10 μM ATP, 10 μM p38 peptide [Caliper Life Sciences FL-Peptide 8 (5-FAM-IPTSPITTTYFFEKKK-COOH)] and 5.7 nM p38-α (Millipore), or 14.3 nM unactivated MAPKAP kinase-2, 0.18 nM p38-α (Millipore) and 2 uM RSK peptide [Caliper Life Sciences FL-Peptide 11 (5-FAM-KKLNRTLSVA-COOH)]. Serial dilutions of compounds were added to each reaction in 700 nL DMSO. 700 nL of DMSO was added to the control wells of the reaction plate as the no inhibitor control for each inhibitor titration. The reaction was terminated by the addition of 15 μL of a 100 mM EDTA. Product formation was analyzed using the Caliper LabChip 3000. The Separation buffer contained 100 mM HEPES pH 7.5, 0.015% Brij-35, 2.5% Coating Reagent #3 (Caliper Life Sciences) and 10 mM EDTA. Calculation of the substrate product ratios are performed using the HTS Well Analyzer software provided by Caliper Life Sciences and the percent inhibition at each compound concentration is determined.

hWB = test: IC50 hWB (TNF-α release assay); type: cell-based; conditions: Homo sapiens

T1 sequence (Q16539 whole entry): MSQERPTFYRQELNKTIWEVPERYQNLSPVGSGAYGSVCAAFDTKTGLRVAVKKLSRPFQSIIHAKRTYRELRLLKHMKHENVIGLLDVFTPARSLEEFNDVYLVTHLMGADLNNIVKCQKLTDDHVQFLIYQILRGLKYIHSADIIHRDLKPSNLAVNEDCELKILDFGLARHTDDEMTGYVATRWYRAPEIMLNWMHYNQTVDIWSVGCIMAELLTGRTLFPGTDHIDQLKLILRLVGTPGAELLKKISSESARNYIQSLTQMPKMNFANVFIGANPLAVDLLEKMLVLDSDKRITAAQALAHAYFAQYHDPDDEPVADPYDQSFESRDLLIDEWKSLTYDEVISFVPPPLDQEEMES

Row | IC50 (p38-α) [nM] | IC50 (hWB) [nM] | Compound
1 | 121 | 1270 | O=C(NCc1nnc(-c2ccc[nH]2)s1)c1cc(C(=O)c2c(F)cc(F)cc2F)c[nH]1 [Example 14, N-{[5-(1H-pyrrol-2-yl)-1,3,4-thiadiazol-2-yl]methyl}-4-(2,4,6-trifluorobenzoyl)-1H-pyrrole-2-carboxamide]
2 | 98 | 614 | O=C(NCc1nnc(-c2ccco2)s1)c1cc(C(=O)c2c(F)cc(F)cc2F)c[nH]1 [Example 15, N-{[5-(2-furyl)-1,3,4-thiadiazol-2-yl]methyl}-4-(2,4,6-trifluorobenzoyl)-1H-pyrrole-2-carboxamide]
3 | 78 | 2820 | COc1ccc(-c2nnc(CNC(=O)c3cc(C(=O)c4c(F)cc(F)cc4F)c[nH]3)s2)cn1 [Example 17, N-{[5-(6-methoxypyridin-3-yl)-1,3,4-thiadiazol-2-yl]methyl}-4-(2,4,6-trifluorobenzoyl)-1H-pyrrole-2-carboxamide]
4 | 22 | 262 | Cc1cc(-c2nnc(CNC(=O)c3cc(C(=O)c4c(F)cc(F)cc4F)c[nH]3)s2)[nH]n1 [Example 20, N-{[5-(3-methyl-1H-pyrazol-5-yl)-1,3,4-thiadiazol-2-yl]methyl}-4-(2,4,6-trifluorobenzoyl)-1H-pyrrole-2-carboxamide]
5 | 78 | 815 | O=C(NCc1nnc(-c2cnccn2)s1)c1cc(C(=O)c2c(F)cc(F)cc2F)c[nH]1 [Example 21, N-[(5-pyrazin-2-yl-1,3,4-thiadiazol-2-yl)methyl]-4-(2,4,6-trifluorobenzoyl)-1H-pyrrole-2-carboxamide]
6 | 10 | 90 | CC(C)c1cc(-c2nnc(CNC(=O)c3cc(C(=O)c4c(F)cc(F)cc4F)c[nH]3)s2)[nH]n1 [Example 25, N-{[5-(3-isopropyl-1H-pyrazol-5-yl)-1,3,4-thiadiazol-2-yl]methyl}-4-(2,4,6-trifluorobenzoyl)-1H-pyrrole-2-carboxamide]
7 | 24 | 163 | CC(C)Cc1cc(-c2nnc(CNC(=O)c3cc(C(=O)c4c(F)cc(F)cc4F)c[nH]3)s2)[nH]n1 [Example 26, N-{[5-(3-isobutyl-1H-pyrazol-5-yl)-1,3,4-thiadiazol-2-yl]methyl}-4-(2,4,6-trifluorobenzoyl)-1H-pyrrole-2-carboxamide]
8 | 69 | 360 | O=C(NCc1nnc(-c2n[nH]c3ccccc23)s1)c1cc(C(=O)c2c(F)cc(F)cc2F)c[nH]1 [Example 28, N-{[5-(1H-indazol-3-yl)-1,3,4-thiadiazol-2-yl]methyl}-4-(2,4,6-trifluorobenzoyl)-1H-pyrrole-2-carboxamide]
9 | 17 | 885 | O=C(NCc1nnc(-c2cc3ncccn3n2)s1)c1cc(C(=O)c2c(F)cc(F)cc2F)c[nH]1 [Example 29]
10 | 43 | 84 | O=C(NCc1nnc(-c2ccn[nH]2)s1)c1cc(C(=O)c2c(F)cc(F)cc2F)c[nH]1 [Example 32, N-{[5-(1H-pyrazol-5-yl)-1,3,4-thiadiazol-2-yl]methyl}-4-(2,4,6-trifluorobenzoyl)-1H-pyrrole-2-carboxamide]
11 | 37.5 | 168 | O=C(NCc1nnc(-c2ccc[nH]c2=O)s1)c1cc(C(=O)c2c(F)cc(F)cc2F)c[nH]1 [Example 35, N-{[5-(2-oxo-1,2-dihydropyridin-3-yl)-1,3,4-thiadiazol-2-yl]methyl}-4-(2,4,6-trifluorobenzoyl)-1H-pyrrole-2-carboxamide]
12 | 259 | 1880 | O=C(NCc1nnc(-c2ccc[nH]c2=O)s1)c1cc(Cc2c(F)cc(F)cc2F)c[nH]1 [Example 43, N-{[5-(2-oxo-1,2-dihydropyridin-3-yl)-1,3,4-thiadiazol-2-yl]methyl}-4-(2,4,6-trifluorobenzyl)-1H-pyrrole-2-carboxamide]
13 | 354 | 1360 | O=C(NCc1nnc(-c2ccn[nH]2)s1)c1cc(Cc2c(F)cc(F)cc2F)c[nH]1 [Example 45, N-{[5-(1H-pyrazol-5-yl)-1,3,4-thiadiazol-2-yl]methyl}-4-(2,4,6-trifluorobenzyl)-1H-pyrrole-2-carboxamide]
14 | 243 | 3270 | Cc1cc(-c2nnc(CNC(=O)c3cc(Cc4c(F)cc(F)cc4F)c[nH]3)s2)[nH]n1 [Example 46, N-{[5-(3-methyl-1H-pyrazol-5-yl)-1,3,4-thiadiazol-2-yl]methyl}-4-(2,4,6-trifluorobenzyl)-1H-pyrrole-2-carboxamide]
